From patent publication US11414431B2, “Substituted pyrazolo[1,5-a]pyrimidines as TYK2 inhibitors” (Nimbus Lakshmi, Inc., priority 2018, dated 2022)

Columns and labels:
JAK2 = JAK2 (Homo sapiens (Human), UniProt O60674); assay: JAK2 Radioactive Kinase Assay; assay type: biochemical; details: compound at 10 μM, substrate poly[Glu:Tyr] (4:1); for inhibition at 10 µM: read-out: JAK2 (% Inhibition at 10 μM)
Procedure: Peptide substrate, [[…]], (20 μM) was prepared in reaction buffer (20 mM Hepes pH 7.5, 10 mM MgCl2, 1 mM EGTA, 0.02% Brij35, 0.02 mg/mL BSA, 0.1 mM […], 2 mM DTT, 1% DMSO. TYK2 (Invitrogen) kinase was added, followed by compounds in DMSO. 33PATP was added to initiate the reaction in ATP at […]. Kinase reaction was incubated for 120 min at room temp and reactions were spotted onto P^81 ion exchange paper (Whatman #3698-915), and then washed extensively in 0.75% phosphoric acid, prior to reading the radioactivity counts. For JAK2 (Invitrogen) kinase assay the peptide substrate poly[Glu:Tyr] (4:1), 0.2 mg/mL was used, in the reaction carried out the same as for TYK2.

TYK2 = TYK2 (Homo sapiens (Human), UniProt P29597); assay: TYK2 Radioactive Kinase Assay; assay type: biochemical; details: compound at 10 μM; peptide substrate […]; read-out: TYK2 (% Inhibition at 10 μM)
Sequence of TYK2 (P29597 whole entry): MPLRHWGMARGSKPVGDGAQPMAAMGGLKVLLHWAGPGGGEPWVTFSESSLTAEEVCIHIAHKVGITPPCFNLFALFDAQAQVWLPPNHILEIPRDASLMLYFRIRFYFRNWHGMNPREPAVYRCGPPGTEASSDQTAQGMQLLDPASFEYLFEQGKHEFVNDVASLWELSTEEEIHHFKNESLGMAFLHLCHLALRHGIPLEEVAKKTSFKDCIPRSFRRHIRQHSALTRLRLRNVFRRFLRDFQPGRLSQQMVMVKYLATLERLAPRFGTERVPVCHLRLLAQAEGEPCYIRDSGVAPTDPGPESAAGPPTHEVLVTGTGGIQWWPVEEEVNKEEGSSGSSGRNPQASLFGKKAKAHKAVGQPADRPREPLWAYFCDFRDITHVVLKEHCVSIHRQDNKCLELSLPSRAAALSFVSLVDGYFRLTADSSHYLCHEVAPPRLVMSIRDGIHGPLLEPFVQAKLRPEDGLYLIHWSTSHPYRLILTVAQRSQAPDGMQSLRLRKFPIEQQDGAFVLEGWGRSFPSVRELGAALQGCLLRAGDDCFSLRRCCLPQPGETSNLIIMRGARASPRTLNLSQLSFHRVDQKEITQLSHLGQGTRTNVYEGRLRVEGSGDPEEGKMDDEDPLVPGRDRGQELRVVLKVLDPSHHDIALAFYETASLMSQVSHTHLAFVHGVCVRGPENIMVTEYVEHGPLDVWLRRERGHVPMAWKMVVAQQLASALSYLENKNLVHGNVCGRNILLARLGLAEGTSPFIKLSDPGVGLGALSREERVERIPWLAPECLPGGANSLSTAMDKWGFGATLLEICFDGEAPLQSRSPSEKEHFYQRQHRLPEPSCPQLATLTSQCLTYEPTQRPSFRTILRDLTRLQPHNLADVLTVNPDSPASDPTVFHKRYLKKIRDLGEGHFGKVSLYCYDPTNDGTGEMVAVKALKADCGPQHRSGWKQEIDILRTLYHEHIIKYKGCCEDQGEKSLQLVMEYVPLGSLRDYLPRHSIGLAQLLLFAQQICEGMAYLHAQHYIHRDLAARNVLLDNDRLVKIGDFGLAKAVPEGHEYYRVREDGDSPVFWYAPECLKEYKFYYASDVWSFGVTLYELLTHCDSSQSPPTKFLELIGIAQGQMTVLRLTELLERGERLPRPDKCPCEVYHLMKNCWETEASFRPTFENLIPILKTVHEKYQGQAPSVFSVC

[1] = system: IL-12 induced STAT4 phosphorlyation mediated by TYK2/JAK2; assay: IL-12 Induced pSTAT4 in Human PBMC; assay type: cell-based; details: 1.7 ng/mL IL-12 for 30 minutes
How it was run: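 Thawed human PBMC pre-incubated with compound 1 hr at 37° C (0.1% DMSO final), then stimulated 30 minutes with IL-12 at 1.7 ng/mL final. pSTAT4 and total STAT4 measured in cell lysates with MSD reagents.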

[2] = biological target: human TYK2 (JH2domain-pseudokinase) (Homo sapiens (Human), UniProt P29597); assay: TYK2 JH2 Domain Binding Assay (KINOMEscan); details: 11-point 3-fold dilution, top concentration 30,000 nM, duplicate; read-out: hTYK2_JH2_Binding (Kd; nM)
Sequence of human TYK2 (JH2domain-pseudokinase) (P29597 556-888): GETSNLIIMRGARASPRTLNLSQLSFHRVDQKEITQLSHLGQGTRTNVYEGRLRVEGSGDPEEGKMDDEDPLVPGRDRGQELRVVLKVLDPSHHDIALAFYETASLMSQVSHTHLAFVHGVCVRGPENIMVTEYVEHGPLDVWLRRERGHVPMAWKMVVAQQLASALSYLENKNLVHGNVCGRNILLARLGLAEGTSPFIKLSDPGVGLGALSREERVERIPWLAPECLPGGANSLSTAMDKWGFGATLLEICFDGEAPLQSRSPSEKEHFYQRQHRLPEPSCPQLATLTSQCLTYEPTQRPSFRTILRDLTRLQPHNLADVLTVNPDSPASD
How it was run: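 KINOMEscan competition binding: HEK293-expressed NFkB-fused TYK2 JH2 (G556–D888), DNA-tagged, against immobilized ligand beads, 1 h shaking at room temperature, 0.9% DMSO. Bound kinase quantified by qPCR.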

Sequence of JAK2 (O60674 whole entry): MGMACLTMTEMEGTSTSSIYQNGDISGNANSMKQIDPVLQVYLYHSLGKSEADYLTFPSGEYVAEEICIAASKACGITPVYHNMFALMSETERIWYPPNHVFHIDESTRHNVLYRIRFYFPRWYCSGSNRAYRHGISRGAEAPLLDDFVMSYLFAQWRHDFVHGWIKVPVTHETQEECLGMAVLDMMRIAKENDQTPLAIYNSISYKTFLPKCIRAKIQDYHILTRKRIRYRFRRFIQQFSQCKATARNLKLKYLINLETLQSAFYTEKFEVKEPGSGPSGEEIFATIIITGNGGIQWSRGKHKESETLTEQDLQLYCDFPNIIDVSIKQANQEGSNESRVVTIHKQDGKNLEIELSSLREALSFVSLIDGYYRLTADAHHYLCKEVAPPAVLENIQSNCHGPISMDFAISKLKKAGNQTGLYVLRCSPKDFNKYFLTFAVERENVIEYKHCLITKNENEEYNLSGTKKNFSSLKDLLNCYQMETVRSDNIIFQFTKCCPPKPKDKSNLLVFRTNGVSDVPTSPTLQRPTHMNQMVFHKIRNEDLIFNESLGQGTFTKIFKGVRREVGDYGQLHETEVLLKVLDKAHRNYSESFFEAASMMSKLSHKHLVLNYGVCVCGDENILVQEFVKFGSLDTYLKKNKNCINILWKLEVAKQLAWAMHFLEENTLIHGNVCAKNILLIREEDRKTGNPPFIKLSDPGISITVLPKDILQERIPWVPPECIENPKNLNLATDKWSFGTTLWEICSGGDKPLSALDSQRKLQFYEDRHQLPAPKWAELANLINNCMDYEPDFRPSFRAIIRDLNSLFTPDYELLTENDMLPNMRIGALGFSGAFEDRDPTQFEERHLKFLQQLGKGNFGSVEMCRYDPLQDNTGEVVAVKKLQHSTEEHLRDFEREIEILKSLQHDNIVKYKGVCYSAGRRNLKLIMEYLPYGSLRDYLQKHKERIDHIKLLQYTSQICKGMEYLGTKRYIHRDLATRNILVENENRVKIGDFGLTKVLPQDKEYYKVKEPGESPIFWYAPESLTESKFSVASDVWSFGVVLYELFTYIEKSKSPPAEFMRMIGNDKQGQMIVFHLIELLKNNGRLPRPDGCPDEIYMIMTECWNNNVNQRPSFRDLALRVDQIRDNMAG

Kd [2]	IC50 [1]	Compound	further results
–	–	CNc1cc(Nc2cccn([C@H]3CC[C@H](OC)CC3)c2=O)nc2c(C(=O)N[C@H]3CC[C@H](OC)C3)cnn12 [Compound I-70, 5-((1-((1 r,4S)-4-Methoxycyclohexyl)-2-oxo-1,2-dihydropyridin-3-yl)amino)-N-((1S,3S)-3-methoxycyclopentyl)-7-(methylamino)pyrazolo[1,5-a]pyrimidine-3-carboxamide]	JAK2 (% Inhibition at 10 μM) (JAK2): A (percent inhibition at 10 μM lower than 50)
–	–	CNc1cc(Nc2cccn(C3CCC[C@@](C)(O)C3)c2=O)nc2c(C(=O)N[C@@H]3C[C@@H]3F)cnn12 (stereo partly drawn) [Compound I-6, N-((1R,2S)-2-Fluorocyclopropyl)-5-((1-(3-hydroxy-3-methylcyclohexyl)-2-oxo-1,2-dihydropyridin-3-yl)amino)-7-(methylamino)pyrazol[1,5-a]pyrimidine-3-carboxamide]	inhibition at 10 µM (TYK2): < 50%; inhibition at 10 µM (JAK2): < 50%
–	–	CNc1cc(Nc2cccn([C@H]3[C@@H]4COC[C@@H]43)c2=O)nc2c(C(=O)NC3C[C@H]3OC)cnn12 (mixture of isomers) [Compound I-24, 5-((1-((1R,5S,6r)-3-Oxabicyclo[3.1.0]hexan-6-yl)-2-oxo-1,2-dihydropyridin-3-yl)amino)-N-(2-methoxycyclopropyl)-7-(methylamino)pyrazolo[1,5-a]pyrimidine-3-carboxamide]	inhibition at 10 µM (TYK2): < 50%; inhibition at 10 µM (JAK2): < 50%; IC50 ([1]; 0.5 h): < 0.1 µM
–	–	CNc1cc(Nc2cccn(C3CC(F)(F)C3)c2=O)nc2c(C(=O)N[C@@H]3CCC[C@@H](O)C3)cnn12 [Compound I-62, 5-((1-(3,3-Difluorocyclobutyl)-2-oxo-1,2-dihydropyridin-3-yl)amino)-N-((1R,3R)-3-hydroxycyclohexyl)-7-(methylamino)pyrazolo[1,5-a]pyrimidine-3-carboxamide]	inhibition at 10 µM (TYK2): < 50%; inhibition at 10 µM (JAK2): < 50%
–	–	CNc1cc(Nc2cccn(C3CC(F)(F)C3)c2=O)nc2c(C(=O)N[C@H]3CCC[C@H](O)C3)cnn12 [Compound I-63, 5-((1-(3,3-Difluorocyclobutyl)-2-oxo-1,2-dihydropyridin-3-yl)amino)-N-((1S,3S)-3-hydroxycyclohexyl)-7-(methylamino)pyrazolo[1,5-a]pyrimidine-3-carboxamide]	inhibition at 10 µM (TYK2): < 50%; inhibition at 10 µM (JAK2): < 50%
< 0.2 nM	–	CNc1cc(Nc2cccn([C@H]3C[C@@H]3F)c2=O)nc2c(C(=O)N[C@H]3CC[C@@H]3OC)cnn12 [Compound I-49, 5-((1-((1S,2S)-2-Fluorocyclopropyl)-2-oxo-1,2-dihydropyridin-3-yl)amino)-N-((1S,2S)-2-methoxycyclobutyl)-7-(methylamino)pyrazolo[1,5-a]pyrimidine-3-carboxamide]	IC50 ([1]; 0.5 h): < 0.1 µM
–	–	CNc1cc(Nc2cccn([C@H]3C[C@H](F)C3)c2=O)nc2c(C(=O)NC3CC[C@@H](OC)C3)cnn12 (mixture of isomers) [Compound I-66, 5-((1-((1r,3R)-3-Fluorocyclobutyl)-2-oxo-1,2-dihydropyridin-3-yl)amino)-N-(3-methoxycyclopentyl)-7-(methylamino)pyrazolo[1,5-a]pyrimidine-3-carboxamide]	inhibition at 10 µM (TYK2): < 50%; inhibition at 10 µM (JAK2): < 50%
> 10 nM	0.1 to 0.5 µM	CO[C@@H]1CC[C@H]1NC(=O)c1cnn2c(N)cc(Nc3cccn(-c4ccccn4)c3=O)nc12 [Compound I-247]	–
< 0.2 nM	< 0.1 µM	O=C(N[C@@H]1CCC1(F)F)c1cnn2c3c(c(-c4cn(C5COC5)c5ncccc45)nc12)OCCN3 [Compound I-772]	–
< 0.2 nM	< 0.1 µM	CNc1cc(Nc2cccn([C@@H]3C[C@H]3F)c2=O)nc2c(C(=O)N[C@@H]3CC[C@H]3OC)cnn12 [Compound I-53, 5-((1-((1R,2R)-2-Fluorocyclopropyl)-2-oxo-1,2-dihydropyridin-3-γ1)amino)-N-((1R,2R)-2-methoxycyclobutyl)-7-(methylamino)pyrazolo[1,5-a]pyrimidine-3-carboxamide]	–
< 0.2 nM	< 0.1 µM	CNc1cc(-c2cn(C3CN(C)C3)c3ncccc23)nc2c(C(=O)NC3CC[C@@H]3OC)cnn12 (stereo partly drawn) [Compound I-608]	–
< 0.2 nM	< 0.1 µM	O=C(N[C@@H]1C[C@@H]1F)c1cnn2c3c(c(Nc4cccc5ocnc45)nc12)OCCN3 [Compound I-752]	–
< 0.2 nM	< 0.1 µM	CC(C)n1cccc(Nc2nc3c(C(=O)NC4CCC4(F)F)cnn3c3c2OCCN3)c1=O (stereo not drawn) [Compound I-765]	–
< 0.2 nM	< 0.1 µM	O=C(N[C@@H]1CCC1(F)F)c1cnn2c3c(c(Nc4cccn([C@H]5[C@@H]6COC[C@@H]65)c4=O)nc12)OCCN3 [Compound I-769]	–
< 0.2 nM	< 0.1 µM	CNc1cc(Nc2cccn([C@H]3C[C@H](F)C3)c2=O)nc2c(C(=O)N[C@H]3C[C@@H]3OC)cnn12 [Compound I-138]	–
< 0.2 nM	< 0.1 µM	CNc1cc(Nc2cccn([C@H]3[C@@H]4COC[C@@H]43)c2=O)nc2c(C(=O)N[C@H]3CCC3(F)F)cnn12 [Compound I-307]	–
0.2 to 1 nM	–	CNc1cc(Nc2cccn(C3CC(F)(F)C3)c2=O)nc2c(C(=O)N[C@H]3CC[C@H](O)C3)cnn12 [Compound I-41, 5-((1-(3,3-Difluorocyclobutyl)-2-oxo-1,2-dihydropyridin-3-yl)amino)-N-((1S,3S)-3-hydroxycyclopentyl)-7-(methylamino)pyrazolo[1,5-a]pyrimidine-3-carboxamide]	IC50 ([1]; 0.5 h): < 0.1 µM
–	–	CNc1cc(Nc2cccn([C@H]3CC[C@H](OC)CC3)c2=O)nc2c(C(=O)N[C@@H]3CC[C@@H](OC)C3)cnn12 [Compound I-69, 5-((1-((1r,4R)-4-Methoxycyclohexyl)-2-oxo-1,2-dihydropyridin-3-yl)amino)-N-((1R,3R)-3-methoxycyclopentyl)-7-(methylamino)pyrazolo[1,5-a]pyrimidine-3-carboxamide]	JAK2 (% Inhibition at 10 μM) (JAK2): A (percent inhibition at 10 μM lower than 50)
< 0.2 nM	< 0.1 µM	CNc1cc(-c2cn(C3COC3)c3ncccc23)nc2c(C(=O)N[C@H]3CC[C@@H]3F)cnn12 [Compound I-508]	–
< 0.2 nM	< 0.1 µM	CNc1cc(-c2cnc3n([C@H]4COC[C@@H]4O)cccc2-3)nc2c(C(=O)NC3CC3)cnn12 [Compound I-816]	–
< 0.2 nM	–	CNc1cc(Nc2cccn([C@H]3C[C@H](OC)C3)c2=O)nc2c(C(=O)N[C@@H]3C[C@@H]3F)cnn12 [Compound I-8, N-((1R,2S)-2-Fluorocyclopropyl)-5-((1-((1r,3R)-3-methoxycyclobutyl)-2-oxo-1,2-dihydropyridin-3-yl)amino)-7-(methylamino)pyrazolo[5-a]pyrimidine-3-carboxamide]	IC50 ([1]; 0.5 h): < 0.1 µM
< 0.2 nM	0.1 to 0.5 µM	CO[C@H]1CC[C@@H]1NC(=O)c1cnn2c(N)cc(Nc3cccn(-c4ccccn4)c3=O)nc12 [Compound I-246]	–
< 0.2 nM	< 0.1 µM	CC(C)n1cc(-c2nc3c(C(=O)N[C@H]4CC[C@H]4O)cnn3c3c2OCCN3)c2cccnc21 [Compound I-754]	–
–	–	CNc1cc(Nc2cccn(-c3ccccn3)c2=O)nc2c(C(=O)N[C@@H]3CC[C@@H](OC)C3)cnn12 [Compound I-67, N-((1R,3R)-3-Methoxycyclopentyl)-7-(methylamino)-5-((2-oxo-2H-[1,2′-bipyridin]-3-yl)amino)pyrazolo[1,5-a]pyrimidine-3-carboxamide]	inhibition at 10 µM (TYK2): < 50%; inhibition at 10 µM (JAK2): < 50%
< 0.2 nM	< 0.1 µM	CNc1cc(Nc2cccn(C3CCOCC3)c2=O)nc2c(C(=O)NC3CCC3)cnn12 [Compound I-143]	–
< 0.2 nM	–	O=C(NC1CCC1(F)F)c1cnn2c3c(c(-c4cn(C5COC5)c5ncccc45)nc12)OCCN3 (stereo not drawn) [Compound I-771, N-(2,2-Difluorocyclobutyl)-5-(1-(oxetan-3-yl)-1H-pyrrolo[2,3-b]pyridin-3-yl)-2,3-dihydro-1H-pyrazolo[5′,1′:2,3]pyrimido[5,4-b][1,4]oxazine-7-carboxamide]	IC50 ([1]; 0.5 h): < 0.1 µM
< 0.2 nM	0.5 to 1 µM	CNc1cc(-c2cnc3n(C4CCOCC4)cccc2-3)nc2c(C(=O)N[C@@H]3CC[C@H]3OC)cnn12 [Compound I-1015]	–
< 0.2 nM	0.1 to 0.5 µM	CNc1cc(-c2cn([C@@H]3COC[C@H]3O)c3ncccc23)nc2c(C(=O)N[C@@H]3C[C@@H]3F)cnn12 [Compound I-502]	–

Compound	Kd [2]	IC50 [1]	further results
N-((cis-1,2)-2-Hydroxycyclobutyl)-5-(1-((1s,3R)-3-hydroxycyclobutyl)-1H-pyrrolo[2,3-b]pyridin-3-yl)-7-(methylamino)pyrazolo[1,5-a]pyrimidine-3-carboxamide [Compound I-111]	< 0.2 nM	0.1 to 0.5 µM	–
